Here are results for four compounds from ChEMBL document CHEMBL6071121, “Synthetic approaches and clinical application of small-molecule inhibitors of sodium-dependent glucose transporters 2 for the treatment of type 2 diabetes mellitus” (Eur J Med Chem, 2024).

Some results are limits rather than exact numbers.

Test [1] has as its target T1, Sodium/glucose cotransporter 2 (Mus musculus) (UniProt Q923I7).
T1 sequence (whole entry): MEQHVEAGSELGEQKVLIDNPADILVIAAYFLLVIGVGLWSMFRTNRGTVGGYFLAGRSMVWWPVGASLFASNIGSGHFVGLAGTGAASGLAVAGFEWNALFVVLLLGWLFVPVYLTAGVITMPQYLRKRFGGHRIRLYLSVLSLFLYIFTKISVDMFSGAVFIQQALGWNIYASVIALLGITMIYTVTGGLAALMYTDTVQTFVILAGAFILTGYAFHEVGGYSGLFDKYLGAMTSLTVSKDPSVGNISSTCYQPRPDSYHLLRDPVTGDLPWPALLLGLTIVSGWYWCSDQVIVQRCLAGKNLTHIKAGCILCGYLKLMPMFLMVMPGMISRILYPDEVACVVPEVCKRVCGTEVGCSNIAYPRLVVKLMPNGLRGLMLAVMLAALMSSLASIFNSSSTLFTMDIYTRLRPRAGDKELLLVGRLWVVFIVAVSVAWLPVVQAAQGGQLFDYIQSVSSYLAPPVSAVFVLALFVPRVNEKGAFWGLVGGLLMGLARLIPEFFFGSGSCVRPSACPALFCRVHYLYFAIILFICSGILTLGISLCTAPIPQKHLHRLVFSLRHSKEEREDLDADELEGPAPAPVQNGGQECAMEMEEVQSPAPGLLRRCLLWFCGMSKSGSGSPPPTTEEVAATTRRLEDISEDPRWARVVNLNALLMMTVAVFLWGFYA
As to the kind of experiment: In vivo inhibition of SGLT2-mediated increase in blood glucose level in mouse administered orally. Type of test: functional, organism-based. To be noted: route po.

Test [2] concerns the target T1, Sodium/glucose cotransporter 2 (Mus musculus). The experiment in a line: In vivo inhibition of SGLT2-mediated increase in blood glucose level in mouse administered intraperitoneally. Type of test: functional, organism-based. To be noted: route ip.
Test [3] deals with T2, Sodium/glucose cotransporter 1 (Homo sapiens, UniProt P13866).
T2 sequence (P13866 whole entry): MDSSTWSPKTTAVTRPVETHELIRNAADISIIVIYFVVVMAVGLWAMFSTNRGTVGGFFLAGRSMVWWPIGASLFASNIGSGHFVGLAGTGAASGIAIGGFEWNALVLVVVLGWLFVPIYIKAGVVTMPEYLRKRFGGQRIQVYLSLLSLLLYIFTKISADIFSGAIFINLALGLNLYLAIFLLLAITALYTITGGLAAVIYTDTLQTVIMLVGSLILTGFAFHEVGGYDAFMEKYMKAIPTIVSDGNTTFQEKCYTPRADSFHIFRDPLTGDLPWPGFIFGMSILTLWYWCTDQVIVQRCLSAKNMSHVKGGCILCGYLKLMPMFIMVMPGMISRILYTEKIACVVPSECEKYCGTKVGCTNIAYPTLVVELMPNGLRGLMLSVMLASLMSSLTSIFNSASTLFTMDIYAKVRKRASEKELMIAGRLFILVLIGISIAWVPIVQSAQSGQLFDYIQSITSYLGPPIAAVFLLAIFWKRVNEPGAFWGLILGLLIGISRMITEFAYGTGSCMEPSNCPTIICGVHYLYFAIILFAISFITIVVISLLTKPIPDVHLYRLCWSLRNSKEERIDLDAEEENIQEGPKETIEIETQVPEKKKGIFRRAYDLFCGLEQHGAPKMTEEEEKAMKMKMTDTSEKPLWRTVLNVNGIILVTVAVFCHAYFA
The experiment in a line: Inhibition of SGLT1 (unknown origin).

Test [4] deals with T3, Sodium/glucose cotransporter 2 (Rattus norvegicus) (UniProt P53792).
T3 sequence (whole entry): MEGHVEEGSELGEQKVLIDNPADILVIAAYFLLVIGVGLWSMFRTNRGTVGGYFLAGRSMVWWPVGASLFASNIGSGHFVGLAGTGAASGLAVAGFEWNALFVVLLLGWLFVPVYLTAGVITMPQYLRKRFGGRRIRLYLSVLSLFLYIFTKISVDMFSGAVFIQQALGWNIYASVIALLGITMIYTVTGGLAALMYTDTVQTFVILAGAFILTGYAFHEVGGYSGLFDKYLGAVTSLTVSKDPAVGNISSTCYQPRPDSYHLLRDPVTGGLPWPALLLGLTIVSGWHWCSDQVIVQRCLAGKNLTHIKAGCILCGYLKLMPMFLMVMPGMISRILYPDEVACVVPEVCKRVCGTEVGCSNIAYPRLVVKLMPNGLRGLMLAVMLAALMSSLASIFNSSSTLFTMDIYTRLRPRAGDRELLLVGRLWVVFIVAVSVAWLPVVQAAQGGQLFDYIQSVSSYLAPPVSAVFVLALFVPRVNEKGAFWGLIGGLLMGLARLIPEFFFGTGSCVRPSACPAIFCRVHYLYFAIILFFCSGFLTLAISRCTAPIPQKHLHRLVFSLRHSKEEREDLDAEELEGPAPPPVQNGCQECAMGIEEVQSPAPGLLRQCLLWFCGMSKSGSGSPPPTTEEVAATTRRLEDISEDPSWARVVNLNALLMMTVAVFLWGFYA
As to the kind of experiment: In vivo inhibition of SGLT2-mediated reduction in urinary glucose excretion in rat administered orally. Type of test: functional, organism-based. To be noted: route po.

Test [5] addresses T1, Sodium/glucose cotransporter 2 (Mus musculus). The experiment in a line: In vivo inhibition of SGLT2-mediated reduction in urinary glucose excretion in mouse administered orally. In kind it is functional, organism-based. To be noted: route po.
In test [6] the target is T4, Sodium/glucose cotransporter 2 (Homo sapiens, UniProt P31639).
T4 sequence (P31639 whole entry): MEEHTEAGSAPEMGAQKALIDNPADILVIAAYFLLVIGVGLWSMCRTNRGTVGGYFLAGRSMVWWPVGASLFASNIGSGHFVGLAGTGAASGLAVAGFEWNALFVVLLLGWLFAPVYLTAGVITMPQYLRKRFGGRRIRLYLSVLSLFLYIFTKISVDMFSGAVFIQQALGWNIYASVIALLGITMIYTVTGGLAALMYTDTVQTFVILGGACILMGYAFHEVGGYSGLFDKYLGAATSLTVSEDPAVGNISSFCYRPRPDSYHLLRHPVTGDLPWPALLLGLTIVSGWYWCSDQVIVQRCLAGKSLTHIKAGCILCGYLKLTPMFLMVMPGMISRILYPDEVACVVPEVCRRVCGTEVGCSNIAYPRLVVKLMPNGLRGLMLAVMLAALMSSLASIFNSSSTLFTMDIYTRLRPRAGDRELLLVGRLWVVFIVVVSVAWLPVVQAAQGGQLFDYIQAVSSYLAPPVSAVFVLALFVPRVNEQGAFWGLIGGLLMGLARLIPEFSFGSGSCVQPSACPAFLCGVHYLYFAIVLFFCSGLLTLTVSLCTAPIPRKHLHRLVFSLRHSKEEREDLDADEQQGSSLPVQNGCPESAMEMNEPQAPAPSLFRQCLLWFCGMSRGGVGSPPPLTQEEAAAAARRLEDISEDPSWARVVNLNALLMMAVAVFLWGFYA
As to the kind of experiment: Inhibition of human SGLT2 expressed in HEK293 cells using 14C-AMG as substrate preincubated for 15 mins followed by substrate addition measured after 2 hrs by liquid scintillation counter analysis. In kind it is cell-based.

Test [7] addresses T2, Sodium/glucose cotransporter 1. The experiment in a line: Inhibition of human SGLT1 expressed in HEK293 cells using 14C-AMG as substrate preincubated for 15 mins followed by substrate addition measured after 2 hrs by liquid scintillation counter analysis. Type of test: cell-based.
In test [8] the target is T5, Sodium/glucose cotransporter 2 (Rattus norvegicus, UniProt P53792).
T5 sequence (P53792 whole entry): T3 sequence (whole entry)
The experiment in a line: Inhibition of rat SGLT2.

In test [9] the target is T4, Sodium/glucose cotransporter 2. As to the kind of experiment: Inhibition of human SGLT2.
Test [10] addresses T6, Sodium/glucose cotransporter 2 (Mus musculus, UniProt Q923I7).
T6 sequence (Q923I7 whole entry): T1 sequence (whole entry)
As to the kind of experiment: Inhibition of mouse SGLT2.

As usually defined, the IC50 is the point on the concentration scale where inhibition reaches its midpoint. High values mean weaker potency in that assay, low ones greater potency in that assay. Consider `COc1ccc(Cc2sccc2O[C@@H]2O[C@H](CO)[C@@H](O)[C@H](O)[C@H]2O)cc1` [ATIGLIFLOZIN], for which the ID50 in [1] was determined as 26.1 mg/kg; in [2], 13.2 mg/kg. For the same compound, the IC50 in test [3] was above 10000 nM. Further, the ID30 in test [4] was determined as 39.8 mg/kg; in [5], 79 mg/kg.
On to `CCOc1ccc(Cc2cc([C@@]34OC[C@@](CO)(O3)[C@@H](O)[C@H](O)[C@H]4O)ccc2Cl)cc1F` [HENAGLIFLOZIN], for which the IC50 is 2.38 nM in test [6] and 4320 nM in [7].
As a reminder, the Ki is a dissociation constant, usually derived from enzyme kinetics or from competition with a known ligand. A high value points to lower affinity. For the compound `CCOC(=O)OC[C@H]1O[C@@H](Oc2nn(C(C)C)c(C)c2Cc2ccc(OC(C)C)cc2)[C@H](O)[C@@H](O)[C@@H]1O` [REMOGLIFLOZIN ETABONATE], the figures for the Ki in test [8] and in [9] were 2140 nM and 1950 nM, respectively.
In the case of `CCc1ccc(Cc2ccc3c(c2)[C@]2(OC3)O[C@H](CO)[C@@H](O)[C@H](O)[C@H]2O)cc1` [TOFOGLIFLOZIN], the Ki amounted to 14.9 nM in test [8], 2.9 nM in test [9] and 6.4 nM in test [10].
